Laboratory results taken from patent publication US20120141479A1, “Histone Deacetylase Inhibitors Sensitize Cancer Cells To Epidermal Growth Factor Inhibitors” (priority 2007, published 2012).

What was measured:
[1] = tested on: EGFR; assay: EGFR phosphorylation in E-cad transfected H157 cell lines; assay type: cell-based; conditions: E-cad transfected H157 cell lines treated with EGF
Method: Cell Culture, Drugs and MTS assay. Twenty NSCLC cell lines were used: squamous (NCI-H157, HCC95, HCC15 and H441), large-cell (H460, H1299, H2126 and H1264, a derivative of H460), adeno (Calu3, A549, H2122, H1648, H520, HCC78, HCC193, H2009, HCC44 and H3255) and bronchioalveolar (H358 and H322). The NSCLC cell lines, HCC78, H2126, HCC95, H1299, HCC193, HCC44, HCC15, H2009 were obtained from UTSW and the H3255 was a gift from Dr. Bruce Johnson. All lines were cultured in RPMI medium 1640 under standard conditions. […] The drugs were diluted in fresh media before each experiment, and the final dimethyl sulfoxide concentration was <0.1%. […] Growth inhibition was assessed by MTS (3-(4,5-dimethylthiazol-2-yl)-5-(3-carboxymethoxyphenyl)-2-(4-sulfophenyl)2H-tetrazolium, inner salt) assay (Promega, Madison, Wis.). […] The absorbency of each well is measured using an automated plate reader. The data was analyzed using a SlideWrite program to determine the IC50 of the drug. […] After sonication, the Bradford assay was used for protein quantification. […]
The effect of E-cad on NSCLC cell lines apoptotic response to gefitinib was assessed by transfecting a gefitinib-resistant cell line, H157, with an E-cad-encoding adenovirus. […] Higher expression of E-cad was detected in the H157-E-cad-3 cell line compared to the H157-E-cad-3 cell line. […]

[2] = tested on: E-cad; conditions: lung cancer cell lines; cited from earlier work
[3] = tested on: NSCLC patients; conditions: single agent, phase I studies including chemotherapy resistant NSCLC patients; cited from earlier work
[4] = tested on: H520 NSCLC cell line; assay: Apoptosis and cell death analysis; assay type: cell-based; conditions: 10 μM gefitinib
Method: (§1) The effect of gefitinib on inducing apoptosis and cell death in NSCLC cell lines sensitive and resistant to gefitinib was evaluated. […] Expression of E-cad was evaluated in these cell lines.

[5] = tested on: H157 NSCLC cell line; assay: Apoptosis and cell death analysis; assay type: cell-based; conditions: 10 μM gefitinib
Method: as §1

[6] = tested on: H460 NSCLC cell line; assay: Apoptosis and cell death analysis; assay type: cell-based; conditions: 10 μM gefitinib
Method: as §1

[7] = tested on: A549 NSCLC cell line; assay: Apoptosis and cell death analysis; assay type: cell-based; conditions: 10 μM gefitinib
Method: The effect of gefitinib on inducing apoptosis and cell death in NSCLC cell lines sensitive and resistant to gefitinib was evaluated. […].

[8] = tested on: Detroit562 head & neck cancer cell line; assay: Modified MTT growth inhibition assay; assay type: cell-based
Method: (§2) Combination administrations were performed as sequential treatments where the HDAC inhibitor was administer prior to the EGFR inhibitor, or simultaneous treatments in selected cell lines. Concentrations of HDAC inhibitors and EGFR inhibitors are indicated as μM concentrations in all experiments. SNDX275 was administered in three increasing concentrations, with a variety of ranges depending upon the cell line.
(§3) Drugs were diluted in fresh medium before each experiment, and the final DMSO concentration was <0.1%. Growth inhibition was assessed using a modified MTT assay. 2×10^3 cells were plated in each well of 96-well flat-bottomed microtiter plates and drugs were added the next day. […] The microtiter plates were incubated for 4 hours at 37° C. The visible absorbance of each well was measured using an automated plate reader (Molecular Devices, Sunnyvale, Calif.), and data were analyzed using SlideWrite to determine the drug IC50.

[9] = tested on: 1483 head & neck cancer cell line; assay: Modified MTT growth inhibition assay; assay type: cell-based; conditions: SNDX275 added as first drug
Method: as §2, §3

[10] = tested on: Panc02.03 pancreatic cancer cell line; assay: Modified MTT growth inhibition assay; assay type: cell-based; conditions: Panc 02.03
Method: as §2, §3

[11] = tested on: Panc03.27 pancreatic cancer cell line; assay: Modified MTT growth inhibition assay; assay type: cell-based; conditions: Panc 03.27, both drugs added at the same time
Method: as §2, §3

[12] = tested on: UMSCC19 head & neck cancer cell line; assay: Modified MTT growth inhibition assay; assay type: cell-based
Method: as §2, §3

[13] = tested on: Panc04.03 pancreatic cancer cell line; assay: Modified MTT growth inhibition assay; assay type: cell-based; conditions: Panc 04.03
Method: as §2, §3

[14] = tested on: FaDu head & neck cancer cell line; assay: Modified MTT growth inhibition assay; assay type: cell-based
Method: as §2, §3

[15] = tested on: HPAFII pancreatic cancer cell line; assay: Modified MTT growth inhibition assay; assay type: cell-based; conditions: SNDX275 added as first drug
Method: as §2, §3

[16] = tested on: HS766T pancreatic cancer cell line; assay: Modified MTT growth inhibition assay; assay type: cell-based
Method: as §2, §3

[17] = tested on: 584 head & neck cancer cell line; assay: Modified MTT growth inhibition assay; assay type: cell-based; conditions: SNDX275 added as first drug
Method: as §2, §3

[18] = tested on: MSK2922 head & neck cancer cell line; assay: Modified MTT growth inhibition assay; assay type: cell-based; conditions: SNDX275 added as first drug
Method: as §2, §3

[19] = tested on: UMSCC22B head & neck cancer cell line; assay: Modified MTT growth inhibition assay; assay type: cell-based
Method: as §2, §3

[20] = erlotinib 0.06 μM alone, SNDX275 added as first drug
[21] = erlotinib 0.06 μM alone, both drugs added at the same time
[22] = erlotinib 3.00 μM alone, SNDX275 added as first drug
[23] = erlotinib 3.00 μM alone, both drugs added at the same time
[24] = erlotinib 0.3 μM alone, SNDX275 added as first drug
[25] = erlotinib 0.3 μM alone, both drugs added at the same time
[26] = erlotinib 2.0 μM alone, SNDX275 added as first drug
[27] = erlotinib 2.0 μM alone, both drugs added at the same time
[28] = erlotinib 6.0 μM alone, SNDX275 added as first drug
[29] = erlotinib 6.0 μM alone, both drugs added at the same time
[30] = erlotinib 10.0 μM alone, both drugs added at the same time

Compound: EGF: Epidermal growth factor purchased from R&D Systems Inc. (NSDSECPLSHDGYCLHDGVCMYIEALDKYACNCVVGYIGERCQYRDLKWWELR; Epidermal growth factor; UniProt P01133 971-1023, looked up)
- increase in EGFR phosphorylation [1]: two fold increase

Compound: CC(/C=C/C(=O)NO)=C\[C@@H](C)C(=O)c1ccc(N(C)C)cc1 [trichostatin A]
- effect of inhibiting HDAC on E-cad [2]: activation of E-cad

Compound: COc1cc2ncnc(Nc3ccc(F)c(Cl)c3)c2cc1OCCCN1CCOCC1 [gefitinib]
- response rates [3]: about 10%
- apoptotic or necrotic effect [4]: no apoptotic or necrotic effect
- apoptotic or necrotic effect [5]: no apoptotic or necrotic effect
- apoptotic or necrotic effect [6]: no apoptotic or necrotic effect
- apoptotic or necrotic effect [7]: no apoptotic or necrotic effect

Compound: C#Cc1cccc(Nc2ncnc3cc(OCCOC)c(OCCOC)cc23)c1 [erlotinib]
- response rates [3]: about 10%
- surviving [8, 20]: 81.459%
- surviving [8, 21]: 73.569%
- surviving ([8]; erlotinib 0.60 μM alone, SNDX275 added as first drug): 56.459%
- surviving ([8]; erlotinib 0.60 μM alone, both drugs added at the same time): 40.826%
- surviving [8, 22]: 28.582%
- surviving [8, 23]: 17.946%
- surviving ([9]; erlotinib 6.0 μM alone): 67.497%
- surviving ([9]; erlotinib 8.0 μM alone): 52.894%
- surviving ([9]; erlotinib 10.0 μM alone): 43.652%
- surviving [10, 24]: 63.194%
- surviving [10, 25]: 54.857%
- surviving [10, 26]: 53.632%
- surviving [10, 27]: 53.313%
- surviving [10, 28]: 27.404%
- surviving [10, 29]: 36.701%
- surviving ([11]; erlotinib 0.03 μM alone): 73.670%
- surviving ([11]; erlotinib 0.60 μM alone): 43.685%
- surviving ([11]; erlotinib 6.00 μM alone): 19.177%
- surviving ([12]; erlotinib 0.03 μM alone, SNDX275 added as first drug (first table)): 70.495%
- surviving ([12]; erlotinib 0.03 μM alone, SNDX275 added as first drug (second table)): 89.125%
- surviving ([12]; erlotinib 2.00 μM alone, SNDX275 added as first drug (first table)): 40.636%
- surviving ([12]; erlotinib 2.00 μM alone, SNDX275 added as first drug (second table)): 49.820%
- surviving ([12]; erlotinib 6.00 μM alone, SNDX275 added as first drug (first table)): 22.618%
- surviving ([12]; erlotinib 6.00 μM alone, SNDX275 added as first drug (second table)): 29.934%
- surviving [13, 24]: 77.213%
- surviving [13, 25]: 65.993%
- surviving [13, 26]: 53.936%
- surviving [13, 27]: 63.603%
- surviving [13, 28]: 30.300%
- surviving [13, 29]: 47.335%
- surviving [14, 20]: 83.931%
- surviving [14, 21]: 98.703%
- surviving ([14]; erlotinib 0.30 μM alone, SNDX275 added as first drug): 49.364%
- surviving ([14]; erlotinib 0.30 μM alone, both drugs added at the same time): 55.823%
- surviving [14, 22]: 24.489%
- surviving [14, 23]: 27.463%
- surviving ([15]; erlotinib 0.03 μM alone): 79.346%
- surviving ([15]; erlotinib 1.00 μM alone): 49.804%
- surviving ([15]; erlotinib 6.00 μM alone): 28.170%
- surviving ([16]; erlotinib 1.0 μM alone, SNDX275 added as first drug): 71.523%
- surviving ([16]; erlotinib 1.0 μM alone, both drugs added at the same time): 77.921%
- surviving [16, 28]: 49.547%
- surviving [16, 29]: 46.785%
- surviving [16, 30]: 37.138%
- surviving ([17]; erlotinib 3.0 μM alone): 70.581%
- surviving ([17]; erlotinib 7.0 μM alone): 49.941%
- surviving ([17]; erlotinib 10.0 μM alone): 25.563%
- surviving ([18]; erlotinib 0.5 μM alone): 76.960%
- surviving ([18]; erlotinib 5.0 μM alone): 49.683%
- surviving ([18]; erlotinib 10.0 μM alone): 16.390%
- surviving ([19]; erlotinib 3.0 μM alone, SNDX275 added as first drug): 79.839%
- surviving ([19]; erlotinib 3.0 μM alone, both drugs added at the same time): 78.643%
- surviving ([19]; erlotinib 7.0 μM alone, SNDX275 added as first drug): 53.060%
- surviving ([19]; erlotinib 7.0 μM alone, both drugs added at the same time): 56.412%
- surviving ([19]; erlotinib 10.0 μM alone, SNDX275 added as first drug): 29.839%
- surviving [19, 30]: 49.762%
